# Measurements: US20230365553A1, “COMPOUNDS AND COMPOSITIONS FOR TREATING CONDITIONS ASSOCIATED WITH STING ACTIVITY” (IFM Due, Inc., priority 2020, published 2023)
# Biological target: T1, STING (Homo sapiens, UniProt Q86WV6, G230A/H232R/R293Q/R71H)
# T1 construct: host or cells: THP1-Dual KO-IFNAR2 cells
# Experiment: STING reporter assay: luciferase reporter activity in THP1-Dual KO-IFNAR2 cells stimulated with 2′3′cGAMP
# Assay type: cell-based
# Details: 15 μM 2′3′cGAMP, 24h, read-out: hSTING EC50
# Summary of the method: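 THP1-Dual KO-IFNAR2 cells (2×10E6 cells/mL) were exposed to compounds at 0.0017-100 μM, then stimulated with 2′3′cGAMP (15 μM final) transfected via Lipofectamine 2000. After 24h at 37° C., secreted luciferase in supernatant was read by QUANTI-Luc luminescence; EC50 derived from concentration-response.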
# T1 sequence (Q86WV6 whole entry R71H/G230A/H232R/R293Q): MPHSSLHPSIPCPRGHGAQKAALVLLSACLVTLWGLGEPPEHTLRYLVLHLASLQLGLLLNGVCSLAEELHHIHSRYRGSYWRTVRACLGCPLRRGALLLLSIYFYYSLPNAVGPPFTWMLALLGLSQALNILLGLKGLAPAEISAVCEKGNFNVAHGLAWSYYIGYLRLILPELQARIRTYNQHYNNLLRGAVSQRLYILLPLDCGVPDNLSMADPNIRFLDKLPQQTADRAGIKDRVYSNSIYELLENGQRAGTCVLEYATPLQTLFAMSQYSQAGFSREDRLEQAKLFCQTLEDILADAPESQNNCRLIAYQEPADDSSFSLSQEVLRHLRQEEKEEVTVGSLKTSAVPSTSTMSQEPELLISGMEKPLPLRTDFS
row,Structure (SMILES),EC50
1,"CS(=O)(=O)CCC(=O)Nc1c[nH]c2ccc(-c3cnn(-c4ccc(C(F)(F)F)cc4)c3)cc12 [Compound 240, 3-(methylsulfonyl)-N-(5-(1-(4-(trifluoromethyl)phenyl)-1H-pyrazol-4-yl)-1H-indol-3-yl)propanamide]",200 to 1000 nM
2,"COCCOCC(=O)Nc1c[nH]c2ccc(-c3cnn(-c4ccc(C(F)(F)F)cc4)c3)cc12 [Compound 217, 2-(2-methoxyethoxy)-N-(5-(1-(4-(trifluoromethyl)phenyl)-1H-pyrazol-4-yl)-1H-indol-3-yl)acetamide]",200 to 1000 nM
3,"O=C(Nc1c[nH]c2ccc(-c3cnn(-c4ccc(C(F)(F)F)cc4)c3)cc12)c1cscn1 [Compound 275, N-(5-(1-(4-(trifluoromethyl)phenyl)-1H-pyrazol-4-yl)-1H-indol-3-yl)thiazole-4-carboxamide]",1000 to 5000 nM
4,"O=C(Nc1c[nH]c2ccc(-c3cnn(-c4ccc(C(F)(F)F)cc4)c3)cc12)C1CC(O)C1 (centres unmarked) [Compound 242, 3-hydroxy-N-(5-(1-(4-(trifluoromethyl)phenyl)-1H-pyrazol-4-yl)-1H-indol-3-yl)cyclobutane-1-carboxamide]",200 to 1000 nM
5,"CCC(=O)Nc1c[nH]c2cc(F)c(-c3cnn(-c4ccc(CC)cc4)c3)cc12 [Compound 103, N-(5-(1-(4-ethylphenyl)-1H-pyrazol-4-yl)-6-fluoro-1H-indol-3-yl)propionamide]",200 to 1000 nM
6,"O=C(Nc1c[nH]c2ccc(-c3cnn(-c4ccc(C5CC(F)(F)C5)cc4)c3)cc12)C1CCC1 [Compound 259, N-(5-(1-(4-(3,3-difluorocyclobutyl)phenyl)-1H-pyrazol-4-yl)-1H-indol-3-yl)cyclobutanecarboxamide]",200 to 1000 nM
7,"CC1(C(=O)Nc2c[nH]c3ccc(-c4cnn(-c5ccc(C(F)(F)F)cc5)c4)cc23)CCOCC1 [Compound 222, 4-methyl-N-(5-(1-(4-(trifluoromethyl)phenyl)-1H-pyrazol-4-yl)-1H-indol-3-yl)tetrahydro-2H-pyran-4-carboxamide]",1000 to 5000 nM
8,"CCC(=O)Nc1c[nH]c2ccc(-c3cnn(-c4ccc(COC)cc4)c3)cc12 [Compound 104, N-(5-(1-(4-(methoxymethyl)phenyl)-1H-pyrazol-4-yl)-1H-indol-3-yl)propionamide]",200 to 1000 nM
9,"CC(=O)Nc1c[nH]c2ccc(-c3cnn(-c4ccc(CC(F)(F)F)cc4)c3)cc12 [Compound 167, N-(5-(1-(4-(2,2,2-trifluoroethyl)phenyl)-1H-pyrazol-4-yl)-1H-indol-3-yl)acetamide]",40 to 200 nM
10,"CCc1ccc(-n2cc(-c3ccc4[nH]cc(NC(C)=O)c4c3)cn2)cc1 [Compound 134, N-(5-(1-(4-ethylphenyl)-1H-pyrazol-4-yl)-1H-indol-3-yl)acetamide]",40 to 200 nM
11,"Cc1cc(C(=O)Nc2c[nH]c3ccc(-c4cnn(-c5ccc(C(F)(F)F)cc5)c4)cc23)no1 [Compound 274, 5-methyl-N-(5-(1-(4-(trifluoromethyl)phenyl)-1H-pyrazol-4-yl)-1H-indol-3-yl)isoxazole-3-carboxamide]",200 to 1000 nM
12,"CCc1ccc(-n2cc(-c3ccc4[nH]cc(NC(=O)C5CN(C)C5)c4c3)cn2)cc1 [Compound 129, N-(5-(1-(4-ethylphenyl)-1H-pyrazol-4-yl)-1H-indol-3-yl)-1-methylazetidine-3-carboxamide]",5000 to 100000 nM
13,"COCCCC(=O)Nc1c[nH]c2ccc(-c3cnn(-c4ccc(C(F)(F)F)cc4)c3)cc12 [Compound 177, 4-methoxy-N-(5-(1-(4-(trifluoromethyl)phenyl)-1H-pyrazol-4-yl)-1H-indol-3-yl)butanamide]",40 to 200 nM
14,"CC(=O)Nc1c[nH]c2ccc(-c3cnn(C(C)c4cccc(C(F)(F)F)c4)c3)cc12 (centres unmarked) [Compound 179, N-(5-(1-(1-(3-(trifluoromethyl)phenyl)ethyl)-1H-pyrazol-4-yl)-1H-indol-3-yl)acetamide]",200 to 1000 nM
15,"CC(c1cccc(C(F)(F)F)c1)n1cc(-c2ccc3[nH]cc(NC(=O)C4CCC4)c3c2)cn1 (centres unmarked) [Compound 257, N-(5-(1-(1-(3-(trifluoromethyl)phenyl)ethyl)-1H-pyrazol-4-yl)-1H-indol-3-yl)cyclobutanecarboxamide]",200 to 1000 nM
16,"CCc1ccc(-n2cc(-c3ccc4[nH]cc(NC(=O)CCC#N)c4c3)cn2)cc1 [Compound 107, 3-cyano-N-(5-(1-(4-ethylphenyl)-1H-pyrazol-4-yl)-1H-indol-3-yl)propanamide]",200 to 1000 nM

row,Structure (SMILES),EC50
1,"CC(=O)Nc1c[nH]c2ccc(-c3cnn(-c4ccc(C(F)(F)F)cc4)c3)cc12 [Compound 245, N-(5-(1-(4-(trifluoromethyl)phenyl)-1H-pyrazol-4-yl)-1H-indol-3-yl)acetamide]",40 to 200 nM
2,"CCc1ccc(-n2cc(-c3ccc4[nH]cc(NC(=O)C5CC(=O)N5)c4c3)cn2)cc1 (centres unmarked) [Compound 121, N-(5-(1-(4-ethylphenyl)-1H-pyrazol-4-yl)-1H-indol-3-yl)-4-oxoazetidine-2-carboxamide]",200 to 1000 nM
3,"CC(=O)NCC(C)(C)C(=O)Nc1c[nH]c2ccc(-c3cnn(-c4ccc(C(F)(F)F)cc4)c3)cc12 [Compound 208, 3-acetamido-2,2-dimethyl-N-(5-(1-(4-(trifluoromethyl)phenyl)-1H-pyrazol-4-yl)-1H-indol-3-yl)propanamide]",1000 to 5000 nM
4,"CC(=O)Nc1c[nH]c2ccc(-c3cnn(-c4ccc(C(F)(F)F)cc4Cl)c3)cc12 [Compound 172, N-(5-(1-(2-chloro-4-(trifluoromethyl)phenyl)-1H-pyrazol-4-yl)-1H-indol-3-yl)acetamide]",40 to 200 nM
5,"O=C(COCC(F)(F)F)Nc1c[nH]c2ccc(-c3cnn(-c4ccc(C(F)(F)F)cc4)c3)cc12 [Compound 207, 2-(2,2,2-trifluoroethoxy)-N-(5-(1-(4-(trifluoromethyl)phenyl)-1H-pyrazol-4-yl)-1H-indol-3-yl)acetamide]",200 to 1000 nM
6,"CCC(=O)Nc1c[nH]c2ccc(-c3cc(C#N)cs3)cc12 [Compound 136, N-(5-(4-cyanothiophen-2-yl)-1H-indol-3-yl)propionamide]",1000 to 5000 nM
7,"CCC(=O)Nc1c[nH]c2ccc(-c3cnn(-c4ccc(CC)nc4)c3)cc12 [Compound 120, N-(5-(1-(6-ethylpyridin-3-yl)-1H-pyrazol-4-yl)-1H-indol-3-yl)propionamide]",1000 to 5000 nM
8,"O=C(Nc1c[nH]c2ccc(-c3cnn(-c4ccc(C(F)(F)F)cc4)c3)cc12)C1(O)COC1 [Compound 194, 3-hydroxy-N-(5-(1-(4-(trifluoromethyl)phenyl)-1H-pyrazol-4-yl)-1H-indol-3-yl)oxetane-3-carboxamide]",1000 to 5000 nM
9,"O=C(CNCC(F)(F)F)Nc1c[nH]c2ccc(-c3cnn(-c4ccc(C(F)(F)F)cc4)c3)cc12 [Compound 183, 2-((2,2,2-trifluoroethyl)amino)-N-(5-(1-(4-(trifluoromethyl)phenyl)-1H-pyrazol-4-yl)-1H-indol-3-yl)acetamide]",1000 to 5000 nM
10,"CC(=O)Nc1c[nH]c2ccc(-c3cnn(-c4ccc(Cl)c(Cl)c4)c3)cc12 [Compound 168, N-(5-(1-(3,4-dichlorophenyl)-1H-pyrazol-4-yl)-1H-indol-3-yl)acetamide]",200 to 1000 nM
11,"CCc1ccc(-n2cc(-c3ccc4[nH]cc(NC(=O)C(C)C)c4c3)cn2)cc1 [Compound 133, N-(5-(1-(4-ethylphenyl)-1H-pyrazol-4-yl)-1H-indol-3-yl)isobutyramide]",40 to 200 nM
12,"CCC(=O)Nc1c[nH]c2ccc(-c3ccc(OC(F)(F)F)cc3)cc12 [Compound 143, N-(5-(4-(trifluoromethoxy)phenyl)-1H-indol-3-yl)propionamide]",1000 to 5000 nM
13,"CC(C)[C@H](O)C(=O)Nc1c[nH]c2ccc(-c3cnn(-c4ccc(C(F)(F)F)cc4)c3)cc12 [Compound 204, (S)-2-hydroxy-3-methyl-N-(5-(1-(4-(trifluoromethyl)phenyl)-1H-pyrazol-4-yl)-1H-indol-3-yl)butanamide]",1000 to 5000 nM
14,"CCC(=O)Nc1c[nH]c2ccc(-c3cnn(-c4ccc(Cl)cc4)c3)cc12 [Compound 119, N-(5-(1-(4-chlorophenyl)-1H-pyrazol-4-yl)-1H-indol-3-yl)propionamide]",200 to 1000 nM
15,"CC(C)(O)CC(=O)Nc1c[nH]c2ccc(-c3cnn(-c4ccc(C(F)(F)F)cc4)c3)cc12 [Compound 173, 3-hydroxy-3-methyl-N-(5-(1-(4-(trifluoromethyl)phenyl)-1H-pyrazol-4-yl)-1H-indol-3-yl)butanamide]",200 to 1000 nM
16,"O=C(CC(O)C(F)(F)F)Nc1c[nH]c2ccc(-c3cnn(-c4ccc(C(F)(F)F)cc4)c3)cc12 (centres unmarked) [Compound 195, 4,4,4-trifluoro-3-hydroxy-N-(5-(1-(4-(trifluoromethyl)phenyl)-1H-pyrazol-4-yl)-1H-indol-3-yl)butanamide]",200 to 1000 nM
